# From patent US5430062A, “Stilbene derivatives as anticancer agents” (priority 1993, dated 1995)
# “Also recorded” adds a separate entry of the source. Structures can show the parent of a compound that is named as a salt. Where two headings read alike, the source gives them in different places.
# What was measured:
# [1] = test system: A-549 lung carcinoma; test: MTT cytotoxicity assay, A-549; details: Homo sapiens, A549, […]
# [2] = test system: tubulin; test: Inhibition of tubulin polymerization (turbidimetry); type: biochemical, bovine
# [3] = test system: MLM melanoma; test: MTT cytotoxicity assay, MLM; details: […]
# [4] = test system: tubulin; test: Inhibition of [3H]colchicine binding to tubulin (DEAE-filter); set-up: species or system bovine; details: for Colchicine binding % inhibition: 1 μM tubulin, 5 μM [3H]colchicine, 5 μM inhibitor, 10 min, 37° C.
# [5] = test system: MCF-7 breast carcinoma; test: MTT cytotoxicity assay, MCF-7; details: Homo sapiens, MCF7, […]
# [6] = test system: SKMEL-5 melanoma; test: MTT cytotoxicity assay, SKMEL-5; details: Homo sapiens, SK-MEL-5, […], read-out: Cytotoxicity ED50, SKMEL-5
# [7] = test system: HT-29 colon adenocarcinoma; test: MTT cytotoxicity assay, HT-29; details: Homo sapiens, HT-29, […], read-out: Cytotoxicity ED50, HT-29
# [8] = test system: five cancer cell cultures; test: MTT cytotoxicity assay, five cancer cell cultures taken together; details: for cytotoxicity (in words): five cancer cell lines; for less cytotoxic than 1a and 5a: relative to 1a and 5a
# [9] = test system: DMS 273 small cell lung cancer; test: Cytotoxicity, DMS 273; details: read-out: cytotoxicity GI50, DMS 273; 50% growth inhibition; average of two determinations; 8640 min
# [10] = read-out: Cytotoxicity ED50, A-549
# [11] = first series (Table VIII and text), 37° C., 20 min, read-out: Tubulin polymerization IC50 (±S.D.)
# [12] = read-out: Cytotoxicity ED50, MLM
# [13] = read-out: Cytotoxicity ED50, MCF-7
SMILES,"IC50 [1, 10]","IC50 [2, 11]","IC50 [3, 12]",Colchicine binding % inhibition [4],"IC50 [5, 13]",IC50 [6],IC50 [7],cytotoxicity (in words) [8],GI50 [9],"IC50 ([2]; Table X, different glutamate preparation (1M monosodium glutamate and GTP), read-out: inhibn of tubulin polymn IC50 (±SD))",inhibition of colchicine binding (in words) [4],inhibition of tubulin polymerization (in words) [2],"IC50 ([8]; read-out: cytotoxicity ED50, in at least three cell lines)",IC50 ([8]; read-out: cytotoxicity ED50),less cytotoxic than 1a and 5a [8],"IC50 ([2]; Table X footnote b, different glutamate preparation, read-out: tubulin polymerization IC50, standard agents)","IC50 ([1]; read-out: Cytotoxicity ED50, A-549, A-549, MTT, six days)","IC50 ([3]; read-out: Cytotoxicity ED50, MLM, MLM, MTT, six days)","IC50 ([5]; read-out: Cytotoxicity ED50, MCF-7, MCF-7, MTT, six days)"
"COc1cc(/C=C\c2ccc(OC(C)=O)cc2)cc(OC)c1OC [compound 5p, (Z)-1-(4-Acetoxyphenyl)-2-(3,4,5-trimethoxyphenyl)ethene]",1.7 µM,29 µM,6.3 µM,24%,0.3 µM,0.6 µM,6 µM,decreased the activity drastically,,,,,,,,,,,
"COc1cc(CNc2ccc(C(C)C)cc2)cc(OC)c1OC [110f, 4-Isopropyl-N-(3,4,5-trimethoxybenzyl)aniline Hydrochloride]",,,,,,,,,12.9 µM,> 40 µM,,,,,,,,,
"COc1ccc(CCc2cc(OC)c(OC)c(OC)c2)cc1O [compound 1c, reference compound]",0.01 µM,3.3 µM,0.01 µM,79%,0.33 µM,0.0021 µM,0.0081 µM,,,,inhibit the binding of radiolabeled colchicine to tubulin,,,,,,,,
"COc1cc(CCc2ccc(N(C)C)cc2)cc(OC)c1OC [compound 8n, 1-[4-(Dimethylamino)phenyl]-2-(3,4,5-trimethoxyphenyl)ethane]",0.083 µM,29 µM,0.12 µM,31%,0.064 µM,0.059 µM,0.077 µM,,,,,only modest inhibitory effects on tubulin polymerization,< 1 µM,,,,,,
"COc1cc(/C=C\c2ccc(Br)cc2)cc(OC)c1OC [5h, (Z)-1-(4-Bromophenyl)-2-(3,4,5-trimethoxyphenyl)ethene]",0.011 µM,3.1 µM,0.014 µM,73%,0.016 µM,0.0067 µM,0.0082 µM,,,,,strong inhibitors of tubulin polymerization; also recorded: active as inhibitors of tubulin polymerization; also recorded: small reductions,,< 0.1 µM,about 1000 -fold,,,,
"COc1cc([C@@H]2c3cc4c(cc3[C@H](O)[C@H]3COC(=O)[C@H]23)OCO4)cc(OC)c1OC [Podophyllotoxin, reference compound]",,[…],,88%,,,,,,,,,,,,[…],,,
"COc1cc(/C=C\c2ccc(Cl)cc2)cc(OC)c1OC [5g, (Z)-1-(4-Chlorophenyl)-2-(3,4,5-trimethoxyphenyl)ethene]",0.08 µM,4.8 µM,0.17 µM,55%,0.18 µM,0.01 µM,0.05 µM,,,,,strong inhibitors of tubulin polymerization; also recorded: active as inhibitors of tubulin polymerization; also recorded: small reductions,,< 0.1 µM,about 1000 -fold,,,,
COc1ccc(/C=C\c2cc(OC)c(OC)c(OC)c2)c(Cl)c1 [compound 5e],,3.5 µM,,73%,,0.017 µM,,decreased the cytotoxicity,,,,strong inhibitors of tubulin polymerization; also recorded: active as inhibitors of tubulin polymerization; also recorded: small reductions,,,about 1000 -fold,,0.051 µM,0.14 µM,0.046 µM
COc1ccc(NCc2cc(OC)cc(OC)c2)cc1 [compound 12d],5.71 µM,29 µM,> 25 µM,39%,6.08 µM,2.41 µM,17.8 µM,,,,,,,,,,,,
